How the values were obtained:
crabgrass, large = experiment: Test C pre-/postemergence herbicide test; format: in vivo, Digitaria sanguinalis
In short: (§1)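 Visual rating, 0 (no effect) to 100 (complete control), versus untreated controls after 13 to 15 days in the greenhouse. Pre: seeds in loam/sand, sprayed at planting. Post: 1- to 4-leaf plants (2 to 18 cm) in peat-based mix. Compounds in non-phytotoxic solvent plus surfactant.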

corn = experiment: Test A pre-/postemergence herbicide test; format: in vivo, Zea mays
In short: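 Seeds sown in loam soil/sand blend received a preemergence directed soil spray of test chemical in non-phytotoxic solvent with surfactant; postemergence plants (2–10 cm, one- to two-leaf stage) were sprayed with the same formulation. After about 10 days in greenhouse, injury was rated visually versus untreated controls, 0 (no effect) to 100 (complete control).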

waterhemp = experiment: Test C pre-/postemergence herbicide test; format: in vivo, Amaranthus rudis
In short: as §1

soybean = experiment: Test C pre-/postemergence herbicide test; format: in vivo, Glycine max
In short: as §1

ryegrass, Italian = experiment: Test C pre-/postemergence herbicide test; format: in vivo, Lolium multiflorum
In short: as §1

barnyardgrass = experiment: Test B flooded paddy test; format: in vivo, Echinochloa crus-galli; details: Flood, scale of 0 to 100 where 0 is no effect and 100 is complete control
In short: (§2)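 Plants grown to 2-leaf stage; pots flooded 3 cm above soil and compound applied directly into paddy water, depth held throughout. Visual rating against untreated controls after 13 to 15 days in greenhouse, 0 (no effect) to 100 (complete control).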

rice = experiment: Test B flooded paddy test; format: in vivo, Oryza sativa; details: Flood, scale of 0 to 100 where 0 is no effect and 100 is complete control
In short: as §2

oilseed rape = experiment: Test C pre-/postemergence herbicide test; format: in vivo, Brassica napus
In short: as §1

ducksalad = experiment: Test B flooded paddy test; format: in vivo, Heteranthera limosa; details: Flood, scale of 0 to 100 where 0 is no effect and 100 is complete control
In short: as §2

blackgrass = experiment: Test C pre-/postemergence herbicide test; format: in vivo, Alopecurus myosuroides
In short: as §1

sedge, umbrella = experiment: Test B flooded paddy test; format: in vivo, Cyperus difformis; details: Flood, scale of 0 to 100 where 0 is no effect and 100 is complete control
In short: as §2

velvetleaf = experiment: Test C pre-/postemergence herbicide test; format: in vivo, Abutilon theophrasti
In short: as §1

[1] = Postemergence, 16 g ai/ha, scale 0 to 100 (0 no effect, 100 complete control)
[2] = Postemergence, 31 g ai/ha, scale 0 to 100 (0 no effect, 100 complete control)
[3] = Postemergence, 62 g ai/ha, scale 0 (no effect) to 100 (complete control)
[4] = Postemergence, 125 g ai/ha, scale 0 to 100 (0 no effect, 100 complete control)
[5] = Preemergence, 31 g ai/ha, scale 0 to 100, 0 is no effect and 100 is complete control
[6] = Preemergence, 62 g ai/ha, scale 0 to 100 (0 no effect, 100 complete control)
[7] = Preemergence, 125 g ai/ha, scale 0 to 100 (0 no effect, 100 complete control)
[8] = Preemergence, 16 g ai/ha, scale 0 to 100
[9] = Postemergence, 500 g ai/ha, 0 to 100 scale (0 no effect, 100 complete control)

CN1CC(c2ccc(C(F)(F)F)cc2)C(C(=O)Nc2ccccc2F)C1=O (centres unmarked) [Compound 304]
Plant response rating, Crabgrass, Large (crabgrass, large; [1]): 10 | Plant response rating, Crabgrass, Large (crabgrass, large; [2]): 10 | Plant response rating, Crabgrass, Large (crabgrass, large; [3]): 60 | Plant response rating, Crabgrass, Large (crabgrass, large; [4]): 80 | Crabgrass, Large plant response rating (crabgrass, large; [5]): 95 | Crabgrass, Large plant response rating (crabgrass, large; [6]): 95 | Plant response rating, Crabgrass, Large (crabgrass, large; [7]): 98 | Plant response rating, Crabgrass, Large (crabgrass, large; [8]): 90 | Plant response rating, Corn (corn; Postemergence, 125 g ai/ha, visual rating on 0 to 100 scale (0 no effect, 100 complete control), approx. 10 days): 30 | Plant response rating, Corn (corn; [9]): 70 | Plant response rating, Waterhemp (waterhemp; [1]): 40 | Plant response rating, Waterhemp (waterhemp; [2]): 50 | Plant response rating, Waterhemp (waterhemp; [3]): 65 | Plant response rating, Waterhemp (waterhemp; [4]): 80 | Waterhemp plant response rating (waterhemp; [5]): 75 | Waterhemp plant response rating (waterhemp; [6]): 80 | Plant response rating, Waterhemp (waterhemp; [7]): 85 | Plant response rating, Waterhemp (waterhemp; [8]): 70 | Plant response rating, Soybean (soybean; [1]): 0 | Plant response rating, Soybean (soybean; [2]): 0 | Plant response rating, Soybean (soybean; [3]): 5 | Plant response rating, Soybean (soybean; [4]): 10 | Soybean plant response rating (soybean; [5]): 0 | Soybean plant response rating (soybean; [6]): 0 | Plant response rating, Soybean (soybean; [7]): 0 | Plant response rating, Soybean (soybean; [8]): 0 | Plant response rating, Ryegrass, Italian (ryegrass, Italian; [1]): 0 | Plant response rating, Ryegrass, Italian (ryegrass, Italian; [2]): 0 | Plant response rating, Ryegrass, Italian (ryegrass, Italian; [3]): 5 | Plant response rating, Ryegrass, Italian (ryegrass, Italian; [4]): 0 | Ryegrass, Italian plant response rating (ryegrass, Italian; [5]): 30 | Ryegrass, Italian plant response rating (ryegrass, Italian; [6]): 75 | Plant response rating, Ryegrass, Italian (ryegrass, Italian; [7]): 40 | Plant response rating, Ryegrass, Italian (ryegrass, Italian; [8]): 10 | Plant response rating, Barnyardgrass (barnyardgrass; 500 g ai/ha): 80 | Plant response rating, Rice (rice; 500 g ai/ha): 35 | Plant response rating, Oilseed Rape (oilseed rape; [1]): 0 | Plant response rating, Oilseed Rape (oilseed rape; [2]): 0 | Plant response rating, Oilseed Rape (oilseed rape; [3]): 0 | Plant response rating, Oilseed Rape (oilseed rape; [4]): 0 | Oilseed Rape plant response rating (oilseed rape; [5]): 50 | Oilseed Rape plant response rating (oilseed rape; [6]): 55 | Plant response rating, Oilseed Rape (oilseed rape; [7]): 55 | Plant response rating, Oilseed Rape (oilseed rape; [8]): 30 | Plant response rating, Ducksalad (ducksalad; 500 g ai/ha): 100 | Plant response rating, Blackgrass (blackgrass; [1]): 0 | Plant response rating, Blackgrass (blackgrass; [2]): 0 | Plant response rating, Blackgrass (blackgrass; [3]): 0 | Plant response rating, Blackgrass (blackgrass; [4]): 0 | Blackgrass plant response rating (blackgrass; [5]): 35 | Blackgrass plant response rating (blackgrass; [6]): 60 | Plant response rating, Blackgrass (blackgrass; [7]): 70 | Plant response rating, Blackgrass (blackgrass; [8]): 30 | Plant response rating, Sedge, Umbrella (sedge, umbrella; 500 g ai/ha): 0 | Plant response rating, Velvetleaf (velvetleaf; [1]): 0 | Plant response rating, Velvetleaf (velvetleaf; [2]): 5 | Plant response rating, Velvetleaf (velvetleaf; [3]): 15 | Plant response rating, Velvetleaf (velvetleaf; [4]): 15 | Velvetleaf plant response rating (velvetleaf; [5]): 20 | Velvetleaf plant response rating (velvetleaf; [6]): 35 | Plant response rating, Velvetleaf (velvetleaf; [7]): 50 | Plant response rating, Velvetleaf (velvetleaf; [8]): 0

O=C1NCC(c2ccc(C(F)(F)F)c(F)c2)C1C(=O)Nc1cccc(F)c1F (racemic) [Compound 247]
Crabgrass, Large plant response rating (crabgrass, large; [5]): 95 | Crabgrass, Large plant response rating (crabgrass, large; [6]): 95 | Plant response rating, Crabgrass, Large (crabgrass, large; [7]): 98 | Plant response rating (scale of 0 to 100), Crabgrass, Large (crabgrass, large; Preemergence, 250 g ai/ha): 100 | Plant response rating, Corn (corn; Postemergence, 125 g ai/ha, 0 to 100 scale, 0 is no effect, 100 is complete control): 0 | Plant response rating, Corn (corn; [9]): 20 | Plant response rating, Corn (corn; Preemergence, 125 g ai/ha, 0 to 100 scale where 0 is no effect and 100 is complete control): 0 | Plant response rating, Corn (corn; preemergence, 500 g ai/ha, 0 to 100 scale, 0 is no effect and 100 is complete control): 0 | Waterhemp plant response rating (waterhemp; [5]): 70 | Waterhemp plant response rating (waterhemp; [6]): 100 | Plant response rating, Waterhemp (waterhemp; [7]): 100 | Plant response rating (scale of 0 to 100), Waterhemp (waterhemp; Preemergence, 250 g ai/ha): 85 | Soybean plant response rating (soybean; [5]): 0 | Soybean plant response rating (soybean; [6]): 0 | Plant response rating, Soybean (soybean; [7]): 0 | Plant response rating (scale of 0 to 100), Soybean (soybean; Preemergence, 250 g ai/ha): 0 | Ryegrass, Italian plant response rating (ryegrass, Italian; [5]): 0 | Ryegrass, Italian plant response rating (ryegrass, Italian; [6]): 35 | Plant response rating, Ryegrass, Italian (ryegrass, Italian; [7]): 40 | Plant response rating (scale of 0 to 100), Ryegrass, Italian (ryegrass, Italian; Preemergence, 250 g ai/ha): 50 | Plant response rating, Barnyardgrass (barnyardgrass; 1000 g ai/ha): 85 | Plant response rating, Rice (rice; 1000 g ai/ha): 0 | Oilseed Rape plant response rating (oilseed rape; [5]): 5 | Oilseed Rape plant response rating (oilseed rape; [6]): 30 | Plant response rating, Oilseed Rape (oilseed rape; [7]): 30 | Plant response rating (scale of 0 to 100), Oilseed Rape (oilseed rape; Preemergence, 250 g ai/ha): 80 | Plant response rating, Ducksalad (ducksalad; 1000 g ai/ha): 95 | Blackgrass plant response rating (blackgrass; [5]): 0 | Blackgrass plant response rating (blackgrass; [6]): 50 | Plant response rating, Blackgrass (blackgrass; [7]): 60 | Plant response rating (scale of 0 to 100), Blackgrass (blackgrass; Preemergence, 250 g ai/ha): 70 | Plant response rating, Sedge, Umbrella (sedge, umbrella; 1000 g ai/ha): 0 | Velvetleaf plant response rating (velvetleaf; [5]): 0 | Velvetleaf plant response rating (velvetleaf; [6]): 20 | Plant response rating, Velvetleaf (velvetleaf; [7]): 30 | Plant response rating (scale of 0 to 100), Velvetleaf (velvetleaf; Preemergence, 250 g ai/ha): 25

From patent US10294202B2, “Pyrrolidinones as herbicides” (FMC Corporation, priority 2013, dated 2019)
